Legend:
[1] = target: PA/PB1 (Influenza A virus (A/Puerto Rico/8/1934(H1N1)), UniProt P03431+P03433); assay: Inhibition of Influenza A virus (A/Puerto Rico/8/34(H1N1)) His6-tagged PA (239 to 716) interaction with GST-tagged PB1 (1 to 25) expressed in Escherichia coli BL21 (DE3) by ELISA
[2] = Cytotoxicity against MDCK cells assessed as cell viability after 48 hrs by MTT assay; assay type: cell-based, Canis lupus familiaris; conditions: dog
[3] = Cytotoxicity against HEK293 cells assessed as cell viability after 24 hrs by MTT assay; assay type: cell-based; conditions: human
Influenza A virus [4] = assay type: functional, organism-based; conditions: A/Puerto Rico/8/1934(H1N1), MDCK, 48 h
Influenza A virus [5] = assay type: functional, organism-based, Influenza A virus (A/Wisconsin/67/2005(H3N2)); conditions: MDCK, 48 h
Influenza A virus [6] = assay type: functional, organism-based; conditions: A/Padova/253/2011(H1N1), MDCK, 48 h
Influenza A virus [7] = assay type: functional, organism-based; conditions: A/Padova/72/2011(H1N1), MDCK, 48 h
Influenza A virus [8] = assay type: functional, organism-based; conditions: A/Padova/30/2011(H1N1), MDCK, 48 h
Influenza A virus [9] = assay type: functional, organism-based; conditions: A/Puerto Rico/8/1934(H1N1), MDCK, 12 h
cells = conditions: Influenza A virus, HEK293, 24 h
Influenza B virus = assay: microbe, parasite or virus in culture; conditions: B/Lee/1940, MDCK, 48 h

O=C(CC1CCCCC1)Nc1sc2c(c1C(=O)Nc1ccccn1)CCCCC2
IC50 [1]: > 200 µM

CSCC[C@H](N)C(=O)N[C@@H](CC(=O)O)C(=O)N[C@H](C(=O)N[C@@H](CC(N)=O)C(=O)N1CCC[C@H]1C(=O)N[C@H](C(=O)N[C@@H](CC(C)C)C(=O)N[C@@H](CC(C)C)C(=O)N[C@@H](Cc1ccccc1)C(=O)N[C@@H](CC(C)C)C(=O)N[C@@H](CCCCN)C(=O)N[C@H](C(=O)N1CCC[C@H]1C(=O)N[C@@H](C)C(=O)N[C@@H](CCC(N)=O)C(=O)O)C(C)C)[C@@H](C)O)C(C)C
CC50 at 48 h [2]: > 100 µM
CC50 at 24 h [3]: > 100 µM
EC50 (Influenza A virus [4]): 40 µM
IC50 [1]: 35 µM

O=C(Nc1sc2c(c1C(=O)Nc1ccccn1)CCCCC2)c1ccc(F)cc1Cl
IC50 [1]: > 200 µM

CCOC(=O)c1c(NC(=O)c2ccc(F)cc2)sc2c1CCCCC2
CC50 at 48 h [2]: > 250 µM
CC50 at 24 h [3]: > 250 µM
EC50 (Influenza A virus [4]): 91 µM
IC50 [1]: > 200 µM

O=C(Cc1ccc(F)cc1)Nc1sc2c(c1C(=O)Nc1ccccn1)CCCCC2
CC50 at 48 h [2]: > 250 µM
CC50 at 24 h [3]: 250 µM
EC50 (Influenza A virus [4]): 16 µM
IC50 [1]: > 200 µM

O=C(Nc1sc2c(c1C(=O)O)CCCCC2)c1ccc(Cl)cc1
IC50 [1]: > 200 µM

CCOC(=O)c1c(NC(=O)c2ccccc2F)sc2c1CCC2
CC50 at 48 h [2]: > 250 µM
CC50 at 24 h [3]: > 250 µM
EC50 (Influenza A virus [4]): > 100 µM
IC50 [1]: > 200 µM

O=C(Nc1sc2c(c1C(=O)Nc1ccccn1)CCCCC2)c1ccc(F)cc1
IC50 [1]: 99 µM

CCOC(=O)c1c(NC(=O)c2ccccc2F)sc2c1CCCCC2
CC50 at 48 h [2]: > 250 µM
CC50 at 24 h [3]: > 250 µM
EC50 (Influenza A virus [4]): 78 µM
IC50 [1]: 200 µM

O=C(CCc1ccc(Cl)cc1)Nc1sc2c(c1C(=O)Nc1ccccn1)CCCCC2
IC50 [1]: > 200 µM

NC(=O)c1c(NC(=O)c2ccccc2F)sc2c1CCCCC2
IC50 [1]: > 200 µM

O=C(Nc1sc2c(c1C(=O)Nc1ccccn1)CCCCC2)c1ccc(Cl)cc1Cl
IC50 [1]: > 200 µM

O=C(Nc1sc2c(c1C(=O)Nc1ccccn1)CCCCC2)c1ccccc1
IC50 [1]: 87 µM

O=C(Nc1sc2c(c1C(=O)O)CCCCC2)c1ccccc1Cl
IC50 [1]: > 200 µM

NC(=O)c1ncn([C@@H]2O[C@H](CO)[C@@H](O)[C@H]2O)n1 [RIBAVIRIN]
EC50 (Influenza A virus [5]): 12 µM
EC50 (Influenza A virus [6]): 11 µM
EC50 (Influenza A virus [7]): 6 µM
EC50 (Influenza A virus [8]): 7 µM
EC50 (Influenza A virus [9]): 2 µM
CC50 at 48 h [2]: > 250 µM
CC50 at 24 h [3]: > 250 µM
EC50 (Influenza A virus [4]): 8 µM
EC50 (cells): 15 µM
EC50 (Influenza B virus): 6 µM

Nc1sc2c(c1C(=O)Nc1ccccn1)CCCCC2
IC50 [1]: 35 µM

O=C(Nc1sc2c(c1C(=O)O)CCCCC2)c1ccccc1F
CC50 at 48 h [2]: > 250 µM
CC50 at 24 h [3]: > 250 µM
EC50 (Influenza A virus [4]): 76 µM
IC50 [1]: 200 µM

O=C(CCc1ccc(F)cc1)Nc1sc2c(c1C(=O)Nc1ccccn1)CCCCC2
IC50 [1]: > 200 µM

CCOC(=O)c1c(NC(=O)c2ccccc2Cl)sc2c1CCCCC2
CC50 at 48 h [2]: > 250 µM
CC50 at 24 h [3]: > 250 µM
EC50 (Influenza A virus [4]): 94 µM
IC50 [1]: > 200 µM

O=C(Nc1sc2c(c1C(=O)Nc1ccccn1)CCCCC2)c1ccccc1Cl
IC50 [1]: 134 µM

COc1ccc(C(=O)Nc2sc3c(c2C(=O)O)CCCCC3)cc1
IC50 [1]: > 200 µM

COc1c(CC(=O)Nc2sc3c(c2C(=O)Nc2ccccn2)CCCCC3)sc2ccccc12
EC50 (Influenza A virus [9]): 6 µM
CC50 at 48 h [2]: > 250 µM
CC50 at 24 h [3]: > 250 µM
EC50 (Influenza A virus [4]): 61 µM
IC50 [1]: 90 µM
EC50 (cells): > 100 µM

O=C(Nc1ccccn1)c1c(NC(=O)C2CCCCC2)sc2c1CCCCC2
IC50 [1]: > 200 µM

O=C(Nc1sc2c(c1C(=O)O)CCC2)c1ccccc1F
CC50 at 48 h [2]: > 250 µM
CC50 at 24 h [3]: > 250 µM
EC50 (Influenza A virus [4]): 77 µM
IC50 [1]: 159 µM

O=C(Cc1ccc2ncccc2c1)Nc1sc2c(c1C(=O)Nc1ccccn1)CCCCC2
CC50 at 48 h [2]: > 250 µM
CC50 at 24 h [3]: > 250 µM
EC50 (Influenza A virus [4]): 58 µM
IC50 [1]: 48 µM

CCOC(=O)c1c(NC(=O)c2ccc(OC)cc2)sc2c1CCCCC2
CC50 at 48 h [2]: > 250 µM
CC50 at 24 h [3]: > 250 µM
EC50 (Influenza A virus [4]): 95 µM
IC50 [1]: > 200 µM

NC(=O)c1c(NC(=O)c2ccccc2F)sc2c1CCC2
IC50 [1]: > 200 µM

O=C(CCc1ccccc1)Nc1sc2c(c1C(=O)Nc1ccccn1)CCCCC2
IC50 [1]: > 200 µM

O=C(Cc1ccccc1)Nc1sc2c(c1C(=O)Nc1ccccn1)CCCCC2
CC50 at 48 h [2]: > 250 µM
CC50 at 24 h [3]: 220 µM
EC50 (Influenza A virus [4]): 19 µM
IC50 [1]: > 200 µM

O=C(Cc1ccc(Cl)cc1)Nc1sc2c(c1C(=O)Nc1ccccn1)CCCCC2
CC50 at 48 h [2]: > 250 µM
CC50 at 24 h [3]: > 250 µM
EC50 (Influenza A virus [4]): 19 µM
IC50 [1]: > 200 µM

O=C(Nc1sc2c(c1C(=O)Nc1ccccn1)CCCCC2)c1ccc(Cl)cc1
IC50 [1]: 32 µM

NC(=O)c1c(NC(=O)c2ccccc2F)sc2c1CCCC2
CC50 at 48 h [2]: 118 µM
CC50 at 24 h [3]: 31 µM
EC50 (Influenza A virus [4]): > 100 µM
IC50 [1]: > 200 µM

O=C(Nc1sc2c(c1C(=O)Nc1ccccn1)CCCCC2)c1cccc(F)c1
IC50 [1]: > 200 µM

CCOC(=O)c1c(NC(=O)c2ccc(Cl)cc2)sc2c1CCCCC2
CC50 at 48 h [2]: > 250 µM
CC50 at 24 h [3]: > 250 µM
EC50 (Influenza A virus [4]): 89 µM
IC50 [1]: > 200 µM

O=C(Nc1sc2c(c1C(=O)O)CCCCC2)c1ccc(F)cc1
IC50 [1]: > 200 µM

O=C(Nc1sc2c(c1C(=O)Nc1ccccn1)CCC2)c1ccccc1F
IC50 [1]: > 200 µM

O=C(Nc1sc2c(c1C(=O)Nc1ccccn1)CCCC2)c1ccccc1F
IC50 [1]: > 200 µM
